Data from patent US11807644B2 (PMV Pharmaceuticals, Inc., priority 2020, dated 2023).

These compounds were tested against T1, recombinant His-tag Y220C p53 DBD protein (Homo sapiens, UniProt P04637, Y220C) (assay: In vitro DNA binding activity assay (TR-FRET): binding of His-tag Y220C p53 DBD to biotin-labeled consensus DNA). Details: SC150 = concentration to increase DNA binding by […], His-tag Y220C p53 DBD, biotin-labeled consensus DNA.
T1 construct: recombinant His-tag Y220C p53 DBD protein (amino acids #˜94-312)
Assay type: biochemical

Compound | Y220C SC150 (μM)
CN1CC[C@@H](Nc2cccc3c2cc(-c2noc(CNC(=O)[C@@H]4C[C@H]4c4cccc(F)c4)n2)n3CC(F)(F)F)[C@@H](F)C1 [Compound 235B, (1R,2R)-N-{[3-(4-{[(3S,4R)-3-fluoro-1-methylpiperidin-4-yl]amino}-1-(2,2,2-trifluoroethyl)-1H-indol-2-yl)-1,2,4-oxadiazol-5-yl]methyl}-2-(3-fluorophenyl)cyclopropane-1-carboxamide] | * (* = 0 μM ≤ SC150 < 0.1 μM)
CN1CC[C@@H](Nc2cccc3c2cc(-c2noc(CNC(=O)c4cn(C)nn4)n2)n3CC(F)(F)F)[C@@H](F)C1 [Compound 236B, N-{[3-(4-{[(3S,4R)-3-fluoro-1-methylpiperidin-4-yl]amino}-1-(2,2,2-trifluoroethyl)-1H-indol-2-yl)-1,2,4-oxadiazol-5-yl]methyl}-1-methyl-1H-1,2,3-triazole-4-carboxamide] | * (* = 0 μM ≤ SC150 < 0.1 μM)
CC(CO)n1ccc(C(=O)NCc2nc(-c3cc4c(N[C@@H]5CCN(C)C[C@@H]5F)cccc4n3CC(F)(F)F)no2)c1 (stereo partly drawn) [Compound 237B, N-{[3-(4-{[(3S,4R)-3-fluoro-1-methylpiperidin-4-yl]amino}-1-(2,2,2-trifluoroethyl)-1H-indol-2-yl)-1,2,4-oxadiazol-5-yl]methyl}-1-(1-hydroxypropan-2-yl)-1H-pyrrole-3-carboxamide] | * (* = 0 μM ≤ SC150 < 0.1 μM)
CN1CC[C@@H](Nc2cccc3c2cc(-c2noc(CNC(=O)c4ccn(CC(=O)O)c4)n2)n3CC(F)(F)F)[C@@H](F)C1 [Compound 238B, 2-[3-({[3-(4-{[(3S,4R)-3-fluoro-1-methylpiperidin-4-yl]amino}-1-(2,2,2-trifluoroethyl)-1H-indol-2-yl)-1,2,4-oxadiazol-5-yl]methyl}carbamoyl)-1H-pyrrol-1-yl]acetic acid] | * (* = 0 μM ≤ SC150 < 0.1 μM)
CN1CC[C@@H](Nc2cccc3c2cc(-c2noc(CNC(=O)[C@@H]4CC4(C)C)n2)n3CC(F)(F)F)[C@@H](F)C1 [Compound 239B, (1R)-N-{[3-(4-{[(3S,4R)-3-fluoro-1-methylpiperidin-4-yl]amino}-1-(2,2,2-trifluoroethyl)-1H-indol-2-yl)-1,2,4-oxadiazol-5-yl]methyl}-2,2-dimethylcyclopropane-1-carboxamide] | * (* = 0 μM ≤ SC150 < 0.1 μM)
CC(C)Cn1ccc(C(=O)NCc2nc(-c3cc4c(N[C@@H]5CCN(C)C[C@@H]5F)cccc4n3CC(F)(F)F)no2)c1 [Compound 240B, N-{[3-(4-{[(3S,4R)-3-fluoro-1-methylpiperidin-4-yl]amino}-1-(2,2,2-trifluoroethyl)-1H-indol-2-yl)-1,2,4-oxadiazol-5-yl]methyl}-1-(2-methylpropyl)-1H-pyrrole-3-carboxamide] | * (* = 0 μM ≤ SC150 < 0.1 μM)
CN1CC[C@@H](Nc2cccc3c2cc(-c2noc(CNC(=O)c4ccn(CC5CC5)c4)n2)n3CC(F)(F)F)[C@@H](F)C1 [Compound 241B, 1-(cyclopropylmethyl)-N-{[3-(4-{[(3S,4R)-3-fluoro-1-methylpiperidin-4-yl]amino}-1-(2,2,2-trifluoroethyl)-1H-indol-2-yl)-1,2,4-oxadiazol-5-yl]methyl}-1H-pyrrole-3-carboxamide] | * (* = 0 μM ≤ SC150 < 0.1 μM)
CN1CC[C@@H](Nc2cccc3c2cc(-c2noc(CNC(=O)c4cccc(N(C)C)c4)n2)n3CC(F)(F)F)[C@@H](F)C1 [Compound 242B, 3-(dimethylamino)-N-{[3-(4-{[(3S,4R)-3-fluoro-1-methylpiperidin-4-yl]amino}-1-(2,2,2-trifluoroethyl)-1H-indol-2-yl)-1,2,4-oxadiazol-5-yl]methyl}benzamide] | * (* = 0 μM ≤ SC150 < 0.1 μM)
CN1CC[C@@H](Nc2cccc3c2cc(-c2noc(CNC(=O)c4ccc(N5CCCC5)cc4)n2)n3CC(F)(F)F)[C@@H](F)C1 [Compound 243B, N-{[3-(4-{[(3S,4R)-3-fluoro-1-methylpiperidin-4-yl]amino}-1-(2,2,2-trifluoroethyl)-1H-indol-2-yl)-1,2,4-oxadiazol-5-yl]methyl}-4-(pyrrolidin-1-yl)benzamide] | * (* = 0 μM ≤ SC150 < 0.1 μM)
CC(O)Cn1ccc(C(=O)NCc2nc(-c3cc4c(N[C@@H]5CCN(C)C[C@@H]5F)cccc4n3CC(F)(F)F)no2)c1 (stereo partly drawn) [Compound 244B, N-{[3-(4-{[(3S,4R)-3-fluoro-1-methylpiperidin-4-yl]amino}-1-(2,2,2-trifluoroethyl)-1H-indol-2-yl)-1,2,4-oxadiazol-5-yl]methyl}-1-(2-hydroxypropyl)-1H-pyrrole-3-carboxamide] | * (* = 0 μM ≤ SC150 < 0.1 μM)
CN1CC[C@@H](Nc2cccc3c2cc(-c2noc(CNC(=O)[C@@H]4C[C@H]4CN4CCOCC4)n2)n3CC(F)(F)F)[C@@H](F)C1 [Compound 245B, (1R,2R)-N-{[3-(4-{[(3S,4R)-3-fluoro-1-methylpiperidin-4-yl]amino}-1-(2,2,2-trifluoroethyl)-1H-indol-2-yl)-1,2,4-oxadiazol-5-yl]methyl}-2-[(morpholin-4-yl)methyl]cyclopropane-1-carboxamide] | * (* = 0 μM ≤ SC150 < 0.1 μM)
CC(C)NC[C@@H]1C[C@H]1C(=O)NCc1nc(-c2cc3c(N[C@@H]4CCN(C)C[C@@H]4F)cccc3n2CC(F)(F)F)no1 [Compound 246B, (1R,2R)-N-{[3-(4-{[(3S,4R)-3-fluoro-1-methylpiperidin-4-yl]amino}-1-(2,2,2-trifluoroethyl)-1H-indol-2-yl)-1,2,4-oxadiazol-5-yl]methyl}-2-{[(propan-2-yl)amino]methyl}cyclopropane-1-carboxamide] | * (* = 0 μM ≤ SC150 < 0.1 μM)
CCCNC[C@@H]1C[C@H]1C(=O)NCc1nc(-c2cc3c(N[C@@H]4CCN(C)C[C@@H]4F)cccc3n2CC(F)(F)F)no1 [Compound 247B, (1R,2R)-N-{[3-(4-{[(3S,4R)-3-fluoro-1-methylpiperidin-4-yl]amino}-1-(2,2,2-trifluoroethyl)-1H-indol-2-yl)-1,2,4-oxadiazol-5-yl]methyl}-2-[(propylamino)methyl]cyclopro-pane-1-carboxamide] | * (* = 0 μM ≤ SC150 < 0.1 μM)
CN1CC[C@@H](Nc2cccc3c2cc(-c2noc(CNC(=O)c4ccn(CCC(=O)O)c4)n2)n3CC(F)(F)F)[C@@H](F)C1 [Compound 248B, 3-[3-({[3-(4-{[(3S,4R)-3-fluoro-1-methylpiperidin-4-yl]amino}-1-(2,2,2-trifluoroethyl)-1H-indol-2-yl)-1,2,4-oxadiazol-5-yl]methyl}carbamoyl)-1H-pyrrol-1-yl]propanoic acid] | * (* = 0 μM ≤ SC150 < 0.1 μM)
CN1CC[C@@H](Nc2cccc3c2cc(-c2noc(CNC(=O)c4ccn(CCO)c4)n2)n3CC(F)(F)F)[C@@H](F)C1 [Compound 249B, N-{[3-(4-{[(3S,4R)-3-fluoro-1-methylpiperidin-4-yl]amino}-1-(2,2,2-trifluoroethyl)-1H-indol-2-yl)-1,2,4-oxadiazol-5-yl]methyl}-1-(2-hydroxyethyl)-1H-pyrrole-3-carboxamide] | * (* = 0 μM ≤ SC150 < 0.1 μM)
CN1CC[C@@H](Nc2cccc3c2cc(-c2noc(CNC(=O)c4ccn(CC(F)F)c4)n2)n3CC(F)(F)F)[C@@H](F)C1 [Compound 250B, 1-(2,2-difluoroethyl)-N-{[3-(4-{[(3S,4R)-3-fluoro-1-methylpiperidin-4-yl]amino}-1-(2,2,2-trifluoroethyl)-1H-indol-2-yl)-1,2,4-oxadiazol-5-yl]methyl}-1H-pyrrole-3-carboxamide] | * (* = 0 μM ≤ SC150 < 0.1 μM)
COC(C)(C)Cn1ccc(C(=O)NCc2nc(-c3cc4c(N[C@@H]5CCN(C)C[C@@H]5F)cccc4n3CC(F)(F)F)no2)c1 [Compound 251B, N-{[3-(4-{[(3S,4R)-3-fluoro-1-methylpiperidin-4-yl]amino}-1-(2,2,2-trifluoroethyl)-1H-indol-2-yl)-1,2,4-oxadiazol-5-yl]methyl}-1-(2-methoxy-2-methylpropyl)-1H-pyrrole-3-carboxamide] | * (* = 0 μM ≤ SC150 < 0.1 μM)
CN1CC[C@@H](Nc2cccc3c2cc(-c2noc(CNC(=O)c4ccn(CC(C)(C)O)c4)n2)n3CC(F)(F)F)[C@@H](F)C1 [Compound 252B, N-{[3-(4-{[(3S,4R)-3-fluoro-1-methylpiperidin-4-yl]amino}-1-(2,2,2-trifluoroethyl)-1H-indol-2-yl)-1,2,4-oxadiazol-5-yl]methyl}-1-(2-hydroxy-2-methylpropyl)-1H-pyrrole-3-carboxamide] | * (* = 0 μM ≤ SC150 < 0.1 μM)
COC(C)Cn1ccc(C(=O)NCc2nc(-c3cc4c(N[C@@H]5CCN(C)C[C@@H]5F)cccc4n3CC(F)(F)F)no2)c1 (stereo partly drawn) [Compound 253B, N-{[3-(4-{[(3S,4R)-3-fluoro-1-methylpiperidin-4-yl]amino}-1-(2,2,2-trifluoroethyl)-1H-indol-2-yl)-1,2,4-oxadiazol-5-yl]methyl}-1-(2-methoxypropyl)-1H-pyrrole-3-carboxamide] | * (* = 0 μM ≤ SC150 < 0.1 μM)
CN1CC[C@@H](Nc2cccc3c2cc(-c2noc(CNC(=O)c4ccc5ccn(C)c5c4)n2)n3CC(F)(F)F)[C@@H](F)C1 [Compound 254B, N-{[3-(4-{[(3S,4R)-3-fluoro-1-methylpiperidin-4-yl]amino}-1-(2,2,2-trifluoroethyl)-1H-indol-2-yl)-1,2,4-oxadiazol-5-yl]methyl}-1-methyl-1H-indole-6-carboxamide] | * (* = 0 μM ≤ SC150 < 0.1 μM)
CC(C)n1cc(C(=O)NCc2nc(-c3cc4c(N[C@@H]5CCN(C)C[C@@H]5F)cccc4n3CC(F)(F)F)no2)cn1 [Compound 255B, N-{[3-(4-{[(3S,4R)-3-fluoro-1-methylpiperidin-4-yl]amino}-1-(2,2,2-trifluoroethyl)-1H-indol-2-yl)-1,2,4-oxadiazol-5-yl]methyl}-1-(propan-2-yl)-1H-pyrazole-4-carboxamide] | * (* = 0 μM ≤ SC150 < 0.1 μM)
